Source: ChEMBL document CHEMBL5465560, “Selectivity Literature for EUbOPEN Chemogenomic Library” (2024)

Columns and labels:
[1] = target: RAC-beta serine/threonine-protein kinase (Homo sapiens) (UniProt P31751); assay: Selectivity interaction (KinomeScan (DiscoverX)) EUB0000607a AKT2; conditions: at 10 µM
[2] = target: Receptor-interacting serine/threonine-protein kinase 2 (Homo sapiens, UniProt O43353); assay: Selectivity interaction (KinomeScan (DiscoverX)) EUB0000607a RIPK2; conditions: at 10 µM
[3] = target: T1, MAP kinase-activated protein kinase 5 (Homo sapiens) (UniProt Q8IW41); assay: Selectivity interaction (Upstate Kinase Profiler service (Millipore)) EUB0000056c MAPKAPK5; conditions: at 1 µM
T1 sequence (whole entry): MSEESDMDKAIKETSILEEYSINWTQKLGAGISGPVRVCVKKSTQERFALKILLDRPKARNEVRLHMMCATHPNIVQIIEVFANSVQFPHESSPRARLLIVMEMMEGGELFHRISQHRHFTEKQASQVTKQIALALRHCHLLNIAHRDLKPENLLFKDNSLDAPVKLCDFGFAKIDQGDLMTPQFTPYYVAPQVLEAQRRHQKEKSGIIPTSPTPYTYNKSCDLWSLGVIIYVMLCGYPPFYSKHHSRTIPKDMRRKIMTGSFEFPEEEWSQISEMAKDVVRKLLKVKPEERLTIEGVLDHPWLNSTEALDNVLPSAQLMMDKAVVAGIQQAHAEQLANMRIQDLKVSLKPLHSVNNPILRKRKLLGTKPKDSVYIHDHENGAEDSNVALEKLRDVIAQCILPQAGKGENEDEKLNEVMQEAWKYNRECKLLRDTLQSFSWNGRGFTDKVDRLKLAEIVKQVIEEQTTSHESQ

[4] = target: T2, Dual specificity mitogen-activated protein kinase kinase 6 (Homo sapiens) (UniProt P52564); assay: Selectivity interaction (ActivX KiNativ screen (kinase selectivity in THP-1 cell lysates)) EUB0000639a MAP2K6; format: subcellular; conditions: lysate, at 0.01 µM
T2 sequence (whole entry): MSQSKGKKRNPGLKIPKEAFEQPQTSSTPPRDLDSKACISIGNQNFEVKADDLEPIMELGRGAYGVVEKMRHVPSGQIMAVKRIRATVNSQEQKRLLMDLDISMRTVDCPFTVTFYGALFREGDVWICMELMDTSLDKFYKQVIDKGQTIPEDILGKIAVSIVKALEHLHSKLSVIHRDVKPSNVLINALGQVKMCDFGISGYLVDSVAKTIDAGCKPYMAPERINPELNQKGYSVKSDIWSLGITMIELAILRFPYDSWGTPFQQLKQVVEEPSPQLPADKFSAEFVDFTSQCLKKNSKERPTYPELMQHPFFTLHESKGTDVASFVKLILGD

[5] = target: Calcium/calmodulin-dependent protein kinase type 1D (Homo sapiens) (UniProt Q8IU85); assay: Selectivity interaction (Kinase panel (DSF assay)) EUB0001559a CAMK1D
[6] = target: Calcium/calmodulin-dependent protein kinase type II subunit alpha (Homo sapiens, UniProt Q9UQM7); assay: Selectivity interaction (Ambit KINOMEscan and KiNATiv profiling in Jurkat cells) EUB0000090b CAMK2A; format: cell-based; conditions: at 1 µM
[7] = target: Protein-tyrosine kinase 2-beta (Homo sapiens) (UniProt Q14289); assay: Selectivity interaction (KinomeScan (DiscoverX)) EUB0000655a PTK2B; conditions: at 10 µM
[8] = target: Serine/threonine-protein kinase pim-3 (Homo sapiens) (UniProt Q86V86); assay: Selectivity interaction (KinomeScan (DiscoverX)) EUB0000045b PIM3
[9] = target: Phosphatidylinositol 4,5-bisphosphate 3-kinase catalytic subunit beta isoform (Homo sapiens) (UniProt P42338); assay: Selectivity interaction (KinomeScan (DiscoverX)) EUB0001079a PIK3CB; conditions: at 1 µM
[10] = target: T3, cAMP-dependent protein kinase catalytic subunit PRKX (Homo sapiens) (UniProt P51817); assay: Selectivity interaction (KinomeScan (DiscoverX)) EUB0001079a PRKX; conditions: at 1 µM
T3 sequence (whole entry): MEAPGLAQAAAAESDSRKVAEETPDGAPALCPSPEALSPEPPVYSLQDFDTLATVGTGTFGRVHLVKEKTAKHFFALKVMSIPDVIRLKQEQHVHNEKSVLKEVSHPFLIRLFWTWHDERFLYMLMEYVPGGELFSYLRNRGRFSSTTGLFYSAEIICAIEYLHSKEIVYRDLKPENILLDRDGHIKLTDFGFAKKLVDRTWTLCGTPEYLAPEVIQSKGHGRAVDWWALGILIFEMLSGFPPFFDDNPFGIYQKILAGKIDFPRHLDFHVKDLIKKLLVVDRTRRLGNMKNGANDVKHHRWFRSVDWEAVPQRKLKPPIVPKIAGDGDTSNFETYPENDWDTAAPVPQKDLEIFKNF

[11] = target: Serine/threonine-protein kinase NLK (Homo sapiens, UniProt Q9UBE8); assay: Selectivity interaction (Competition-binding assay (DiscoverX)) EUB0000229b NLK
[12] = target: Mitogen-activated protein kinase 4 (Homo sapiens) (UniProt P31152); conditions: at 10 µM
[13] = target: T4, Cytoplasmic tyrosine-protein kinase BMX (Homo sapiens) (UniProt P51813); assay: Selectivity interaction (KinomeScan (DiscoverX)) EUB0001619a BMX; conditions: at 1 µM
T4 sequence (whole entry): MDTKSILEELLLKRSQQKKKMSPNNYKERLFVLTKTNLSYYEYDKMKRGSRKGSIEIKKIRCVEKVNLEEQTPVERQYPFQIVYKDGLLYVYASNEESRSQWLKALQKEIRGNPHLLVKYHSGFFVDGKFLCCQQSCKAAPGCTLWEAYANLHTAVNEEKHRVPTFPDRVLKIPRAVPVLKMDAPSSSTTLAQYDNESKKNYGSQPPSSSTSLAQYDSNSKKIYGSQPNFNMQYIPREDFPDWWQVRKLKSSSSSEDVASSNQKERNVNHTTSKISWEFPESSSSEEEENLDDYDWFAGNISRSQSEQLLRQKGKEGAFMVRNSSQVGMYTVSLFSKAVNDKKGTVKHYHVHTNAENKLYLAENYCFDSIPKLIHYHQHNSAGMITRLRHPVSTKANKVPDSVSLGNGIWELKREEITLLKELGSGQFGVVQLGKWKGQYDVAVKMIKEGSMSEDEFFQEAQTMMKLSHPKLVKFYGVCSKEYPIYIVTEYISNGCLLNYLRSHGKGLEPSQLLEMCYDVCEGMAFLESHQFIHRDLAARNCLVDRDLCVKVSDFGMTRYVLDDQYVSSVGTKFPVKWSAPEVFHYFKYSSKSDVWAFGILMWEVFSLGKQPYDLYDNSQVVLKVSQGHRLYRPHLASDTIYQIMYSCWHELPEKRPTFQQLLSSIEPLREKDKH

Receptor-interacting serine/threonine-protein kinase 2, sequence (O43353 whole entry): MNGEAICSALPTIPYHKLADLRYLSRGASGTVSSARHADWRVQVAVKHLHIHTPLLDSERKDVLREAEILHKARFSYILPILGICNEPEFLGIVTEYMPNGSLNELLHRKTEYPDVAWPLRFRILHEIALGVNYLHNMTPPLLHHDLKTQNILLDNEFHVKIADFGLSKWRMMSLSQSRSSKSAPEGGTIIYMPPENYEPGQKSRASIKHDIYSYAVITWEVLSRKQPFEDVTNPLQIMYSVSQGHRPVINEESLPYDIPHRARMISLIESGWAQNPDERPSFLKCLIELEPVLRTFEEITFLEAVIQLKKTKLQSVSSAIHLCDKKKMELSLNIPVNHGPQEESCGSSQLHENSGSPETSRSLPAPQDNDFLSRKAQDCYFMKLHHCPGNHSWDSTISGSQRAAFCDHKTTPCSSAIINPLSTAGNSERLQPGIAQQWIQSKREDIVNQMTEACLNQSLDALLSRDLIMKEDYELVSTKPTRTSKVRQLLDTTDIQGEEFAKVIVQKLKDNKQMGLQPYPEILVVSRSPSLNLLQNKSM
RAC-beta serine/threonine-protein kinase (Homo sapiens), sequence (P31751 whole entry): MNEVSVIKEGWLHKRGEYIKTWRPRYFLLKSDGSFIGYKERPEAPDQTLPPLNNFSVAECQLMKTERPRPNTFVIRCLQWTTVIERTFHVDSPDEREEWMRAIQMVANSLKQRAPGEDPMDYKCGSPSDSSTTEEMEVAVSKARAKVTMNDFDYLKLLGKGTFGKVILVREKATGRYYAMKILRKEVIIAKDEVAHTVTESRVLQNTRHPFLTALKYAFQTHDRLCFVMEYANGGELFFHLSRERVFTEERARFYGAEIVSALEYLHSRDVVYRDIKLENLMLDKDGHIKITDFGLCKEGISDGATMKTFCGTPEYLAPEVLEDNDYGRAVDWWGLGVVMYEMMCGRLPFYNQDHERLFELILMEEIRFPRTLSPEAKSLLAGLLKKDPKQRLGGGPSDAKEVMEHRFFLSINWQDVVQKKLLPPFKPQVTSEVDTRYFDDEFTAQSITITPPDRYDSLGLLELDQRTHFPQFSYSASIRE
Serine/threonine-protein kinase NLK, sequence (Q9UBE8 whole entry): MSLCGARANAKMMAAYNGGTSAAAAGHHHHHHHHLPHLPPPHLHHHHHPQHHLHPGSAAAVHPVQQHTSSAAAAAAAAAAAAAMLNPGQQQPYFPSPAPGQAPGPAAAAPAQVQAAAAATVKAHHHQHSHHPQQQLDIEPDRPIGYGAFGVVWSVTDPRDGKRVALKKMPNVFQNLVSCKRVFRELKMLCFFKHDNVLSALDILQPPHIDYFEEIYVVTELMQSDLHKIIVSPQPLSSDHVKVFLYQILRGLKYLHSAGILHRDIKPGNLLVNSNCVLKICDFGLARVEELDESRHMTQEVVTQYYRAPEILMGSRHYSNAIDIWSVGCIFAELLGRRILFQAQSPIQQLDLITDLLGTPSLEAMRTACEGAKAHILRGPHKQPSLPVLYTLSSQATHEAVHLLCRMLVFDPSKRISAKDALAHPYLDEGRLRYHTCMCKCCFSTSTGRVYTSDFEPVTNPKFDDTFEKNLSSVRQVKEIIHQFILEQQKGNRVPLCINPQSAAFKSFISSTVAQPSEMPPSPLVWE
Calcium/calmodulin-dependent protein kinase type II subunit alpha, sequence (Q9UQM7 whole entry): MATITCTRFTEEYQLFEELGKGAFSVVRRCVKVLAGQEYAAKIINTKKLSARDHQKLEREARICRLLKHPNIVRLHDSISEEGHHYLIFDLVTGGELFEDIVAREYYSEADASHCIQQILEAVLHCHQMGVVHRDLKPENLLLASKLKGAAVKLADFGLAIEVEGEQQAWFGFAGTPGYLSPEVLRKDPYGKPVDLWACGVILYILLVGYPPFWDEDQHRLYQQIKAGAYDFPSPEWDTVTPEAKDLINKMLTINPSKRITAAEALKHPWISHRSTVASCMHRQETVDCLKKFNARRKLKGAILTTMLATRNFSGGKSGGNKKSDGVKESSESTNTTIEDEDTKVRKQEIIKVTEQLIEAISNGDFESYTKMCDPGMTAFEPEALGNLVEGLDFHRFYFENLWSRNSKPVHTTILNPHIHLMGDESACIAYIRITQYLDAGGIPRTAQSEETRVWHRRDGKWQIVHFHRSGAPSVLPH
Mitogen-activated protein kinase 4 (Homo sapiens), sequence (P31152 whole entry): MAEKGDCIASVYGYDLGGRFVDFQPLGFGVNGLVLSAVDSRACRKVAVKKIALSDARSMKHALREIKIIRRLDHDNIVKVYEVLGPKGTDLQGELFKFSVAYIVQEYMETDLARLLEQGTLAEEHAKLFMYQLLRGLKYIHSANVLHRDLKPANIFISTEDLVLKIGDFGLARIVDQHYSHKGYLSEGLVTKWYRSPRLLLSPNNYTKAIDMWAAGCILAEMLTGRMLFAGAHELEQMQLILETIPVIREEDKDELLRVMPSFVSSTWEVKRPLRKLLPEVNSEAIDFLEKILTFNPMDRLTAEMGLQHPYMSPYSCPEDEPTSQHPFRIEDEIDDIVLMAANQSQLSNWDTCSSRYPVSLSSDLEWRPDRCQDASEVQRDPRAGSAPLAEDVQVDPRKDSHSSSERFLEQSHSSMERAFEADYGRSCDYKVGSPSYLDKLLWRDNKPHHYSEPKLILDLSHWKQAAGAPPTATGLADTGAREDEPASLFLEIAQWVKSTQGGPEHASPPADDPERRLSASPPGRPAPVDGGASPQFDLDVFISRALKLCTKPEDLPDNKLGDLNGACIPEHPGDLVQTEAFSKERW
Phosphatidylinositol 4,5-bisphosphate 3-kinase catalytic subunit beta isoform (Homo sapiens), sequence (P42338 whole entry, looked up, canonical isoform): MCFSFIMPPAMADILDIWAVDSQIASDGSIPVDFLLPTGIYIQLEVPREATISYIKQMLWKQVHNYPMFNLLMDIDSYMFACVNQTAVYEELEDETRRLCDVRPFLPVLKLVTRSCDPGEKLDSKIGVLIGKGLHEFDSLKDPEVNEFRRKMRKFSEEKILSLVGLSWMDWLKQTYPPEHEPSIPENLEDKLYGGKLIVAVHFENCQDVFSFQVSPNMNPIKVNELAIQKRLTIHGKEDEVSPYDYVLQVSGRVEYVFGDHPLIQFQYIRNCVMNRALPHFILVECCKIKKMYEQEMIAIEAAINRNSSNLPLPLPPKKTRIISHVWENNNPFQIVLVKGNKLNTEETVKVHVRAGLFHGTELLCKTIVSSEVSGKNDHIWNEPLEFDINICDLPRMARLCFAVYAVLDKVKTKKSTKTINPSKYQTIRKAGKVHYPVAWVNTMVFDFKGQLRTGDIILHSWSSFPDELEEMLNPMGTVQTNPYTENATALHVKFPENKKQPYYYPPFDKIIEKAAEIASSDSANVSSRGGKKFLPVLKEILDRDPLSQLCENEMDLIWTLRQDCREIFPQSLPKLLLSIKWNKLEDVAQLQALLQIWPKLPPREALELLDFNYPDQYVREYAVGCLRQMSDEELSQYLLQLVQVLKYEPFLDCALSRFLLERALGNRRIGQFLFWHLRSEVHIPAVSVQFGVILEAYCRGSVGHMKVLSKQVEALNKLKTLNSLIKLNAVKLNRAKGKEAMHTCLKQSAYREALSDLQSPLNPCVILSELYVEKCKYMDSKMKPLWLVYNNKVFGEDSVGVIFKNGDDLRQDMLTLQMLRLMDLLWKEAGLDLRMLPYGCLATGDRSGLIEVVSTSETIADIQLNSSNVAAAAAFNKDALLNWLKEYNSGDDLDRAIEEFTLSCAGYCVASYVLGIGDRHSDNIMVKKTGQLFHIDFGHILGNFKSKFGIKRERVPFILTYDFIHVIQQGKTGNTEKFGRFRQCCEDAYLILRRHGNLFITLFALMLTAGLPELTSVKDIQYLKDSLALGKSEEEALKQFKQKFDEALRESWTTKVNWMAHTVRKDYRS
Protein-tyrosine kinase 2-beta (Homo sapiens), sequence (Q14289 whole entry, looked up): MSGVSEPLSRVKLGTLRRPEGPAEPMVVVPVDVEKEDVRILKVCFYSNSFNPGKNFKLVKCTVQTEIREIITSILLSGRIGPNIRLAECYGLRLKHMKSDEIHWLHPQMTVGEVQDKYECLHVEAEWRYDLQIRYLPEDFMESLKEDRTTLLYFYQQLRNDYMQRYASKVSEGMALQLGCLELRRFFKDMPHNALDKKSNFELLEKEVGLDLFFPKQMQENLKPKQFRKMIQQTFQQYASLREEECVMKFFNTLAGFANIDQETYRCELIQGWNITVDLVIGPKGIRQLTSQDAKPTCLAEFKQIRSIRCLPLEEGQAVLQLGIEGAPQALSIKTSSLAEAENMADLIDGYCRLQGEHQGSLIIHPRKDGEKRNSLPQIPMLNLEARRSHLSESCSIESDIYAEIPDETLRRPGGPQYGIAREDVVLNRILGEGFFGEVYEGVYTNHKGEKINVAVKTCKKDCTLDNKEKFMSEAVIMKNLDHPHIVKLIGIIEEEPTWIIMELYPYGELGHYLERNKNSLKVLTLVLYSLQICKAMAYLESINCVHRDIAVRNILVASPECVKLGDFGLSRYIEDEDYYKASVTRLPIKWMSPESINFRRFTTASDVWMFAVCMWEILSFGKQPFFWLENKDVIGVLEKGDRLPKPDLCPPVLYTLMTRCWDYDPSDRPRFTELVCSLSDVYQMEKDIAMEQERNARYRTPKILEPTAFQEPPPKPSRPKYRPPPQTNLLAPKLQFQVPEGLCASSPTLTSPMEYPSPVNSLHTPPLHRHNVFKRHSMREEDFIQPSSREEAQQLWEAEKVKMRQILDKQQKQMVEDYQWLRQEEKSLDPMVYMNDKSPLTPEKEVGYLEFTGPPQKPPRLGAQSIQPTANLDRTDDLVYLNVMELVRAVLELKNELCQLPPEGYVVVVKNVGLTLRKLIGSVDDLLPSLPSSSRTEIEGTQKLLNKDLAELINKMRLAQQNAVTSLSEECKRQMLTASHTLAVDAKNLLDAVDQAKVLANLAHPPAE

For CNC(=O)Nc1ccc(-c2nc(N3CC4CCC(C3)O4)c3cnn(C4CCC5(CC4)OCCO5)c3n2)cc1, the % of control [1] was 100% and the % of control [2] was 71%.

Cc1ccc(-c2ccc3c(ccc4sc5c(c43)NC[C@@H](C)NC5=O)n2)cn1 showed a % of inhibition [3] of 99%.

Work on CC[C@@H]1[C@H](F)C(=O)N[C@@H]1COc1nccc2cc(C(N)=O)c(OC)cc12 [ZIMLOVISERTIB] yielded a % of inhibition [4] of 7.4%.

For CN(C(=O)c1cnn2cccnc12)c1cc2c(cc1N1CCOCC1)C(=O)N(C[C@@H](F)C(C)(C)O)C2, the dTM [5] was -0.7 K.

CN(C)C/C=C/C(=O)Nc1ccc(C(=O)N2CCCC(Nc3ncc(Cl)c(-c4c[nH]c5ccccc45)n3)C2)cc1 (centres undefined) was tested, and the % of control [6] was 99%.

In the case of CN(C)CCOc1ccc(-c2nc(-c3ccncc3)c(-c3ccc4c(c3)CC/C4=N\O)[nH]2)cc1, the % of control [7] is reported as 100%.

Compound C=CC(=O)Nc1cc(-n2c(=O)ccc3cnc4ccc(-c5ccc(NS(C)(=O)=O)cc5)cc4c32)ccc1C has a % of control ([8]; at 1 µM) of 83% and a % of control ([8]; at 10 µM) of 82%.

In the case of Nc1cnc(N2CCc3cc(S(=O)(=O)Nc4c(F)cc(Cl)cc4F)cc(N4CCCC4=O)c32)nc1 [TP-020n], the % of control [9] is reported as 87% and the % of control [10] is reported as 99%.

Compound COc1cc(N(C)c2ccnc3ccc(C(F)(F)F)cc23)cc(OC)c1OC has a Kd [11] of 6.5 µM.

Work on Cc1cc([C@@H](C)Nc2ccccc2C(=O)O)c2nc(N3CCOCC3)cc(=O)n2c1 [AZD-6482] yielded a % of control [12] of 98%.

Work on N#Cc1cccc(-c2c[nH]c3ncnc(N4CCOCC4)c23)c1 yielded a % of control [13] of 97%.
